≈ marks a conversion by molar mass, not a printed value. Entries after “also recorded” stand apart in the source; their conditions may differ. Where two headings read alike, the source gives them in different places.
Assays:
aggressive behavior = test: Aggressive behavior (anti-aggressive test) in isolated mice; assay type: in vivo, mouse; conditions: for ED50: Mus musculus, ip, 1 h, read-out: Anti-aggresive test ED50; for effect on aggressive behavior: in words
Description: Anxiolytic effect was defined as a block of aggressive behavior in mice. Male mice kept isolated for 3 weeks or longer develop an aggressive behaviour when caged together. The method used followed that reported by Valzelli et al. (8) with the exception that two mice were tested together. The aggressiveness was scored during a five minute test according to the following scale:
0: the animals show no interest in each other except occasional nosing,
[…]: frequent vigorous nosing and tail twitching. The animals assume a fighting position and occasionally attack the partner -- no more than 3-4 times in the period of five minutes,
50: tail twitching, powerful attacks -- no more than 10 times during the test period,
75: the animals pursue their partners, attacking and biting for most of the time,
100: attacks over the entire period.
Controls administered with the solvent were tested. […] The animals were used for several experiments but with intervals of at least one week. Groups of 10 mice were used, and they were tested one hour after the administration of the drug. The animals were used as their own controls.

[1] = system: conditioned avoidance response (CAR); test: Conditioned avoidance response in rats; assay type: in vivo, rat; conditions: for ED50: Rattus norvegicus, ip, 1 h, i.p.
Description: For this reason the conditioned avoidance test has been developed for initial screening of neuroleptics. Rats were trained to avoid electrical shock by jumping from one compartment to the other in a shuttle box. The conditioned stimulus consists of an auditory signal which after eight seconds was followed by the electrical shock. The rates were trained to a criterion of making eight out of ten responses correctly. The drugs were injected one hour before the test. The avoidance responses are expressed in percentage of those before administration. CD50 is the dose which reduces the avoidance response to 50% of control values.

catalepsy [2] = test: Catalepsy; assay type: in vivo; conditions: rat
Excerpt: (§1) Using the method and intensity scaring system described by Costall and Naylar, (7), the cataleptic properties of SIR 109 and chloropromazine were studied. Briefly, an animal was classed as cataleptic if it remained in an abnormal position for 15 seconds. Additionally, the duration the animal held this position was converted to a numerical scare as an indication of the intensity of the catalepsy.

Catalepsy [3] = assay type: in vivo
Excerpt: as §1

mice [4] = test: Behavioral observation (ptosis, catatonia) in mice; assay type: in vivo, mouse
in vivo = conditions: mouse
Description: (§3) The compounds were given by intravenous route to 3 mice. […] Seizures, gait, sedation and grip strength were recorded.
(§4) Acute toxicity was tested by the intraveneous, intraperitoneal and oral routes of administration. […] During the oral route a behavioral scoring system was used in order to relate changes in behavior to dose. The LD50 values were determined graphically from log dose -- response curves based on four doses with three animals per dose. Peripheral parasympatholytic effect was tested in mice by observing the mydriatic effect after intravenous injection (9) (four doses with three animals per dose). PD200 refers to the dose which increases the pupil width by 200%.

[5] = system: NA turnover / noradrenaline receptor; test: Estimation of NA receptor blockade (NA turnover) in the rat brain; assay type: in vivo; conditions: for minimal effective dose: ip, read-out: first significant dose, effect on brain noradrenaline level
Excerpt: (§2) The estimation of catecholamine (CA) turnover was made by using the tyrosine hydroxylase inhibitor α-methyl tyrosine methyl ester (H 44/68) (4). This technique is based on the assumption that dopamine (DA) or noradrenaline (NA) receptor blockade will mediate an increase in CA turnover and result in lowered CA levels in the brain compared to H 44/68 alone. Since DA receptor blockade is assumed to be a biochemical correlate to antipsychotic action, this test gives a biochemical evidence for an antipsychotic effect. In this particular test the DA and NA levels in the brain were measured biochemically (5,6).

[6] = system: methamphetamine induced hyperactivity; test: Antagonism of methamphetamine-induced hyperactivity; assay type: in vivo, mouse; conditions: mice, FIG. 1, in words
Description: Sedatives (e.g. barbiturates, benzodiazepines and propandiols) on the other hand generally potentiate the induced hyperactivity. The interaction with amphetamines consequently gives an indication of the mechanism of a drug. Male mice were pretreated with the test drug 30 minutes before the administration of methamphetamine 3 mg/kg i.p. After 20 minutes the spontaneous motor activity was measured for 20 minutes by an Animex activity meter, which can distinguish between slight and considerable motion. The animals were tested in groups of three and used only once. Control groups treated with saline alone or the test drug and saline according to the testing schedule were run simultaneously.

[7] = system: conditioned avoidance response (CAR); conditions: general knowledge, in words; cited from earlier work
[8] = system: DA turnover / dopamine receptor; test: Estimation of DA receptor blockade (DA turnover) in the rat brain; assay type: in vivo; conditions: for minimal effective dose: ip, read-out: first significant dose, effect on brain dopamine level; for effect on DA turnover: in words
Excerpt: as §2

Solubility in water = assay type: physicochemical; conditions: hydrochloride
mice [9] = test: Acute toxicity in mice; conditions: in words
Description: as §3, §4

[10] = system: uptake of 5-HT (midbrain slices); test: Inhibition of the uptake of tritiated 5-HT in vitro (brain slices); assay type: biochemical, mouse
motor activity = test: Motor activity in mice; assay type: in vivo, mouse; conditions: for ED50: Mus musculus, 1 h
Description: The exploratory activity of mice was recorded in a locomotion cage in which the movements were counted each time the animals cross-circuits on electrical current in the bottom plate. […] The animals were tested individually. Groups of six mice were used and the mice were only used once. The activity was expressed in percent of the activity of control groups ran simultaneously.
Sedative activity was defined as suppression of normal motor activity. The motor activity in mice was automatically recorded in a locomotion cage in which the movements are counted each time the animal short-circuits an electrical current in the bottom plate. […] The animals were tested individually. Groups of six mice were used. The activity was expressed in percent of the activity of control groups run simultaneously.

[11] = system: uptake of noradrenaline (cortex slices); test: Inhibition of the uptake of tritiated noradrenaline in vitro (brain slices); assay type: biochemical; conditions: dl-noradrenaline 10^-7 M
[12] = system: uptake of 5-HT (midbrain slices); test: Inhibition of the uptake of tritiated 5-HT in vivo; design: species or system mouse; conditions: Mus musculus, ip, 0.5 h; i.p., in vivo; read-out: Inhibition (50 %) of uptake in vivo, 5-HT
Description: The drugs were administered intraperitoneally half an hour before the animals were killed and the midbrain was taken out and sliced and incubated in a mixture consisting of, per 100 mg of brain slices, 0.2 μmole of ^3 H-5-HT and 1 μmole of glucose in 2 ml of Krebs-Henseleit buffer, pH 7.4. The incubation time was 5 minutes with 5 minutes of preincubation before ^3 H-5-HT was added. The radioactive ^3 H-5-HT taken up in the slices was extracted with ethanol and the amount was determined by liquid scintillation. The dose producing 50 per cent decrease of the active uptake (ED50) was determined graphically from dose response curves. Active uptake is defined as that part of the radioactive uptake which is inhibited by a high concentration of cocaine. All doses were given at least to four animals.

[13] = system: uptake of noradrenaline (cortex slices); test: Inhibition of the uptake of tritiated noradrenaline in vivo; conditions: ip, read-out: Inhibition (50 %) of uptake in vivo, NA
Description: The animals were killed half or one hour after the administration of the drugs in vivo (i.p.). The slices, made from cortex, were preincubated for five minutes and incubated with 0.1 μmole per ml of ^3 H-noradrenaline for further five minutes. The incubation mixture consisted of 0.2 μmole of ^3 H-NA and the brain slices in 2 ml of Krebs-Henseleits buffer, pH 7.4. The radioactive ^3 H-NA taken up in the slices was extracted with ethanol and the amount was determined by liquid scintillation. The dose producing 50 per cent decrease of the active uptake (ED50) was determined graphically from dose response curves. At least four animals were used at each dose level.

pupil width (mydriasis) = conditions: mouse, in vivo
Description: as §3, §4

[14] = rat, after H 44/68 250 mg/kg i.p.

## CN(C)CCCN1c2ccccc2Sc2ccc(Cl)cc21 [Chlorpromazine, reference compound]
Aggressive behavior
  ED50: 2 mg/kg
Aggressive behavior; mice
  effect on aggressive behavior: effective first at sedative doses
[1]; read-out: CAR ED50 (Table 4)
  ED50: 5 mg/kg
Catalepsy [2]; in vivo
  Catalepsy intensity score: 1.0
Catalepsy [3]; rat, in vivo, ip
  ED50: 7 mg/kg
Mice [4]; mice
  threshold dose for ptosis: 4 mg/kg
Mice [4]; orally, mouse
  dose from which catatonic state was prominent: ≥ 31 mg/kg
In vivo; ip
  LD50 at 24 h: 92 mg/kg
In vivo; iv
  LD50 at 24 h: 26 mg/kg
In vivo; po
  LD50 at 24 h: 190 mg/kg
[5]; Rattus norvegicus
  minimal effective dose: 5 mg/kg
[6]
  block of methamphetamine induced hyperactivity: blocked methamphetamine induced hyperactivity in mice
[7]
  inhibition of learned responses: inhibit many different types of learned responses
[8]; Rattus norvegicus
  minimal effective dose: 5 mg/kg
[8]
  effect on DA turnover: effects DA turnover at about the same dose

## CNC1C=CC2(CC1)c1ccccc1C=Cc1ccccc12 (stereo not drawn) [Example 12]
Solubility in water
  solubility: ~10000 µg/mL (≈ 34.8 mM)

## CN(C)C1C=CC2(CC1)c1ccccc1CCc1ccc(Cl)cc12 (racemic) [SIR 109, 3'-chloro-10', 11'-dihydro-4-(dimethylamino)spiro[2-cyclohexene-1,5'(5'H)-dibenzo[a,d]cycloheptene]]
Aggressive behavior; i.p., mice
  ED50: 0.27 mg/kg
Aggressive behavior; mice
  effect on aggressive behavior: potent at a dose which does not cause sedation; also recorded: strong effect of SIR 109 on aggressive behavior at non-sedative doses
Mice [9]
  acute toxicity versus CPZ: considerably less toxic than CPZ both after i.v., i.p. and oral administration in the mice; also recorded: considerably less toxic after acute administration
[1]; rat, read-out: CAR CD50
  ED50: 7.5 to 10 mg/kg
[1]; read-out: CAR ED50 (Table 4)
  ED50: 7.5 to 10 mg/kg
[1]; rat, in words
  effect on conditioned avoidance response: somewhat less active than chlorpromazine; also recorded: about as potent as chlorpromazine
Catalepsy [2]
  Catalepsy intensity score: 0.75
Catalepsy [2]; in words
  cataleptic effect: weak cataleptic effect in the rat; also recorded: intensity of catalepsy was considerably lower after SIR 109 compared to CPZ; also recorded: low cataleptic action
Catalepsy [3]; in vivo, ip, rat
  ED50: 25 mg/kg
Mice [4]; mouse, in vivo
  threshold dose for ptosis: 31 mg/kg
Mice [4]; mouse, in vivo, po
  catatonic state: did not cause any catatonic state
[10]
  Inhibition (50 %) of uptake in vitro, 5-HT: 1.3 µg/mL
Motor activity; mice, read-out: Motor activity ID50
  ED50: 5 mg/kg
Motor activity; ip, i.p., mice, read-out: Motor activity ID50 (Table 4)
  ED50: 5 mg/kg
Motor activity; in words
  sedation / tranquilizing effect: tranquilizing effect of the compound; also recorded: strongly sedative or tranquilizing
Motor activity; mice, in words
  sedation (motor activity) versus CPZ: caused sedation in the mice at about the same dose as CPZ; also recorded: about as potent as chlorpromazine
In vivo; ip
  LD50 at 24 h: 185 mg/kg
In vivo; iv
  LD50 at 24 h: 40 mg/kg
In vivo; po
  LD50 at 24 h: 250 mg/kg
[5]; in words
  effect on NA turnover / selectivity versus DA turnover: seems to be more selective than chlorpromazine since it influences NA turnover first at higher doses; also recorded: more selective compound than chlorpromazine since it affects NA turnover first at higher doses
[5]; [14]
  minimal effective dose: 10 to 15 mg/kg
[11]
  Inhibition (50 %) of uptake in vitro, NA: 1.5 µg/mL
[12]
  ED50: > 40 mg/kg
[6]
  block of methamphetamine induced hyperactivity: blocked methamphetamine induced hyperactivity in mice; also recorded: about as potent as chlorpromazine
[13]
  ED50: 40 mg/kg
[8]
  effect on DA turnover: effects DA turnover at about the same dose; also recorded: about as potent as chlorpromazine
[8]; [14]
  minimal effective dose: 5 mg/kg
Pupil width (mydriasis)
  peripheral (parasympatholytic) effects: weak peripheral effects
Pupil width (mydriasis); iv, 10 min
  PD200 (Table 4): > 40 mg/kg

From patent US4053632A, “Compounds of spiro-amine type and methods for their use” (priority 1971, dated 1977)
